Reference: paper PMC10149936, “Cofilin activation in pancreatic acinar cells plays a pivotal convergent role for mediating CCK-stimulated enzyme secretion and growth” (Frontiers in Physiology, 2023)

Key:
Assay type in all cases: cell-based
[1] = system: cofilin (pS3) in AR42J cells; assay: cofilin activation (pS3 cofilin Western blot) in AR42J cells; settings: Cytochalasin D 10 µM or Paclitaxel 5 µM, 4 h; A71378 30 nM 10 min
Method: (§1) CCK1 receptor transfected Panc-1 (CCK1-R/Panc-1) cells ([Berna et al., 2009]) and AR42J cells, were cultured in DMEM supplemented with 10% FBS and 1% penicillin/streptomycin and in RPMI supplemented with 10% FBS and 1% penicillin/streptomycin, respectively; and split 1:10 weekly with trypsin/EDTA, after washing in PBS. Finally, cells were seeded in 6-well plate and serum starved overnight, until they were 80% confluent. Cells were incubated at 37°C in 5% CO2/95% air. AR42J cells were treated with 100 nM dexamethasone for 72°h, which stimulates their differentiation into exocrine cells ([Logsdon, 1986]).
Western blotting and immunoprecipitation were performed as described previously ([Ramos-Alvarez and Jensen, 2018]). Whole cell lysates were subjected to SDS-PAGE using 4%–20% Tris–Glycine gels. […] The intensity of the protein bands was measured using GeneTools software from Syngene, which were assessed in the linear detection range.
(§2) FIGURE 12 Effect of two cofilin inhibitors, Cytochalasin D or Paclitaxel (A, B), or cofilin siRNA (C), on the ability of A71378 (30 and 10 nM) to alter activation of cofilin (A) and p44/42 (B, C). […] Western blots were analyzed using anti-pS3 cofilin, anti-pT202/Y204 p44/42 and Tubulin. Bands were visualized using chemiluminescence and quantified by densitometry. […] Results are expressed as % of basal stimulation of the control group. […]

[2] = system: p44/42 MAPK in AR42J cells; assay: p44/42 MAPK activation (pT202/Y204 Western blot) in AR42J cells; settings: Cytochalasin D 10 µM or Paclitaxel 5 µM, 4 h; A71378 30 nM 10 min
Method: as §1
Western blotting and immunoprecipitation were performed as described previously ([Ramos-Alvarez and Jensen, 2018]). Whole cell lysates were subjected to SDS-PAGE using 4%–20% Tris–Glycine gels. […] The intensity of the protein bands was measured using GeneTools software from Syngene, which were assessed in the linear detection range. […]
as §2

AR42J cells = assay: amylase release from AR42J cells (Phadebas); settings: Cytochalasin D 10 µM or Paclitaxel 5 µM; for inhibition of CCK-8/A71378-induced amylase secretion: 4 h, CCK-8 and A71378 (0.03 and 1 nM), 30 min; for effect on basal amylase release: AR42J (Figure 13B)
Method: as §1
For siRNA-mediated knockdown, 5 × 10^5 CCK1-R/Panc-1 or AR42J cells were seeded into 6-well plates and incubated for 24 h. Cells were then transfected with 10 nM of siRNA against human SSH1 siRNA against human cofilin (Dharmacon. Lafayette, CO) in Opti-MEM medium for 48 h using Lipofectamine according to the manufacture’s instruction.
Amylase release was performed as described previously ([Sato et al., 1989]; [Ramos-Alvarez and Jensen, 2018]). Amylase activity was determined after 30 min incubation using the Phadebas reagent and was expressed as percentage of the total cellular amylase released into the extracellular medium during the incubation ([Ramos-Alvarez and Jensen, 2018]).
FIGURE 13 Effect of two cofilin inhibitors, Cytochalasin D or Paclitaxel, (A, B), or Cofilin siRNA (C), on the ability of CCK/TPA/A71378-stimulated amylase release form pancreatic acini (A) or AR42J cells (B, C). In (A, B) pancreatic acini and AR42J cells were incubated in the absence or presence of Cytochalasin D (10 µM) or Paclitaxel (5 µM) for 4 h and then incubated with no additions (control) or CCK-8 (0.03, 0.3, 1 and 100 nM), TPA (1 µM) or A71378 (0.03 and 1 nM) for 30 min and then lysed. In (B, C) AR42J cells were treated with Dexamethasone (100 nM) for 72 h, and in (C) AR42J cells were transfected with siRNA Non-targeting Control and siRNA against cofilin for 48 h, and then incubated with no addition (control) or CCK-8 (0.03 and 1 nM) and A71378 (0.03 and 1 nM) for 30 min. Amylase release, expressed as percent of cellular total amylase secreted, was determined after 30 min incubation. Means ± S.E. of at least 3 independent experiments. N.S., No significant.

[3] = system: LIMK (pT508) in pancreatic acini; assay: LIMK phosphorylation (pT508 LIMK Western blot) in isolated rat pancreatic acini
Method: Pancreatic acini preparations were obtained by collagenase digestion as previously described ([Bissonnette et al., 1984]; [Sato et al., 1989]; [Ramos-Alvarez and Jensen, 2018]). After collagenase digestion, dispersed acini were preincubated with different inhibitors in standard incubation solution ([Ramos-Alvarez and Jensen, 2018]; [Ramos-Ãlvarez et al., 2020]) for 3 h at 37°C under conditions specific for PKD/PKC, Src, PI3K, MAPKs, SSH1, LIMK, cofilin, other phosphatases and PAK4 inhibitors, as described previously ([Ramos-Alvarez and Jensen, 2018]; [Ramos-Ãlvarez et al., 2020]). Isolated acini and CCK1-R/Panc-1 cells (M&M 2.2.1) were also preincubated with two SSH1 inhibitors, D3 (25 μM, 1 h) ([Li et al., 2015]) or SE (50 μM, 3 h for acini; 24 h for CCK1-R/Panc-1 cells) ([Lee et al., 2017]). After preincubation, 1 mL aliquots of dispersed acini were incubated at 37°C for 3–15 min with CCK-8 (0.3 nM or 100 nM), for 5–15 min with TPA (1 µM) or without stimulants, used as control. Cells were lysed in lysis buffer (50 mM Tris/HCl pH 7.5, 150 mM NaCl, 1% Triton X-100, 1% deoxycholate, 0.1% sodium azide, 1 mM EGTA, 0.4 mM EDTA, 0.2 mM sodium orthovanadate, 1 mM PMSF, and one protease inhibitor tablet per 10 mL). After sonication, lysates were centrifuged at 10,000×g for 15 min at 4°C and protein concentration was measured using the Bio-Rad protein assay reagent. Finally, cells were processed as below for Western blotting.
Both concentrations of CCK-8 were used because CCK-8 is reported to have different responses with physiological and supraphysiological concentrations contributing to physiological and pathophysiological processes such as pancreatitis ([Dufresne et al., 2006]).
Western blotting and immunoprecipitation were performed as described previously ([Ramos-Alvarez and Jensen, 2018]). Whole cell lysates were subjected to SDS-PAGE using 4%–20% Tris–Glycine gels. […] Finally, membranes were then washed again twice in blocking buffer for 4 min, twice in washing buffer for 4 min, incubated for 4 min with chemiluminescence detection reagents. The intensity of the protein bands was measured using GeneTools software from Syngene, which were assessed in the linear detection range.
Isolated pancreatic acini were incubated with either no addition (control), CCK-8 (0.3 and 100 nM) or TPA (1 µM) for the indicated periods of time and then lysed. Western blots were analyzed using anti-pT508 LIMK, anti-pS3 cofilin and anti-pS978 SSH1, which […] the activation states of LIMK, cofilin and SSH1. Bands were visualized using chemiluminescence and quantified by densitometry.

Molecule	inhibition of CCK1-R-induced activation of cofilin in AR42J cells [1]	decrease of A71378-mediated activation of p44/42 [2] [%]	inhibition of CCK-8/A71378-induced amylase secretion (AR42J cells)	effect on basal amylase release (AR42J cells)	effect on LIMK dephosphorylation ([3]; TPA 1 µM)	time of return of LIMK phosphorylation to basal levels ([3]; CCK-8 0.3 or 100 nM) [min]
C=C1[C@@H](C)[C@H]2[C@H](Cc3ccccc3)NC(=O)[C@]23[C@H](OC(C)=O)/C=C/[C@@](C)(O)C(=O)[C@@H](C)C/C=C/[C@H]3[C@@H]1O [Cytochalasin D]	completely inhibited	34	completely inhibited	Neither of these two cofilin inhibitors influenced basal amylase release		
CC(=O)O[C@H]1C(=O)[C@@]2(C)[C@H]([C@H](OC(=O)c3ccccc3)[C@]3(O)C[C@H](OC(=O)[C@H](O)[C@@H](NC(=O)c4ccccc4)c4ccccc4)C(C)=C1C3(C)C)[C@]1(OC(C)=O)CO[C@@H]1C[C@@H]2O [Paclitaxel]	completely inhibited	36	completely inhibited	Neither of these two cofilin inhibitors influenced basal amylase release		
CCCCCCCCCCCCCC(=O)O[C@@H]1[C@@H](C)[C@@]2(O)[C@@H](C=C(CO)C[C@]3(O)C(=O)C(C)=C[C@@H]23)[C@H]2C(C)(C)[C@]12OC(C)=O [TPA, 12-O-tetradecanoylphobol-13-acetate]					did not cause LIMK dephosphorylation	
COOH-terminal octapeptide of cholecystokinin [CCK-8]						30
